# Source: ChEMBL document CHEMBL1132847, “Substituted 1,6-naphthyridines as human cytomegalovirus inhibitors: conformational requirements” (Bioorg Med Chem Lett, 2000)
# System: Human betaherpesvirus 5
# Test: Concentration required to inhibit human cytomegalovirus by 50 percent
# Assay type: functional, organism-based
row,Compound,IC50
1,Cc1ccccc1CNC(=O)c1ccc2cnccc2n1,1 µg/mL
2,CCOc1ccccc1CNC(=O)c1ccc2cnccc2n1,0.1 µg/mL
3,COc1ccccc1CN(C)C(=O)c1ccc2cnccc2n1,> 25 µg/mL
4,Cc1cncc2ccc(C(=O)NCc3ccccc3OC(C)C)nc12,0.0004 µg/mL
5,O=C(NC1CCCOc2ccccc21)c1ccc2cnccc2n1 (stereo not drawn),0.5 µg/mL
6,O=C(NCc1ccccc1OC(F)(F)F)c1ccc2cnccc2n1,1 µg/mL
7,CC(C)Oc1ccccc1CNC(=O)c1ccc2cnccc2n1,0.005 µg/mL
8,O=C(NC1CCOc2ccccc21)c1ccc2cnccc2n1 (stereo not drawn),20 µg/mL
